Here are results for twelve molecules from ChEMBL document CHEMBL1201862, “PubChem BioAssay data set” (2004).

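Cells were grown in 96-well plates and exposed to each compound for 48 hours at five concentrations; endpoints were interpolated linearly between bracketing concentrations, or set to the highest concentration if not reached. GI50 = concentration required for 50% inhibition of growth.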 Active and inactive are the calls of the source. Rule as the data show it: active = GI50 up to about 1.1 µM and inactive = higher.

The term GI50 denotes the concentration that inhibits growth by half.

Test systems include HCC 2998; OVCAR-8; RXF 393; DU-145; BT-549; OVCAR-3; SNB-75; A498; CAKI-1; SNB-19; NCI-H522; HOP-62; NCI-H23; SF-295; ACHN; EKVX; NCI/ADR-RES; IGROV-1; MDA-N.
Holding throughout (test): DTP human tumour cell line panel, 48 h

As for `O=Cc1cc(O)c(O)c(/C=N/n2c3ccccc3c3ccccc32)c1`, the GI50 is 11.7 µM (inactive) with HCC 2998; 2.63 µM (inactive) with OVCAR-8; 5.57 µM (inactive) in the assay with RXF 393; 11.4 µM (inactive) in the assay with DU-145; 2.31 µM (inactive) with BT-549; 2.44 µM (inactive) in the assay on OVCAR-3. The GI50 is 2.65 µM (inactive) with SNB-75; 15.9 µM (inactive) in the assay with A498; 16.1 µM (inactive) in the assay with CAKI-1; 8.61 µM (inactive) in the assay on SNB-19; 2.64 µM (inactive) in the assay with NCI-H522; 11.2 µM (inactive) in the assay with HOP-62. The GI50 in the assay on NCI-H23 was 8.09 µM (inactive); in the assay on SF-295 it was 8.69 µM (inactive); with ACHN, 4.25 µM (inactive); in the assay with EKVX, 18.9 µM (inactive).

Regarding `C=C(CCOC)CCC1CCCCC(=C)[C@H]1OC(C)=O` (some centres undefined), the GI50 was > 100 µM (inactive) in the assay on OVCAR-8; 78.3 µM (inactive) with NCI/ADR-RES; > 100 µM (inactive) in the assay with DU-145; > 100 µM (inactive) with IGROV-1; > 100 µM (inactive) with OVCAR-3; > 100 µM (inactive) with SNB-75. In addition, the GI50 is > 100 µM (inactive) in the assay on A498; > 100 µM (inactive) with CAKI-1; > 100 µM (inactive) in the assay on SNB-19; 41.8 µM (inactive) in the assay with NCI-H522; > 100 µM (inactive) in the assay on HOP-62; 93.8 µM (inactive) with NCI-H23. Further, the GI50 in the assay on SF-295, in the assay on ACHN, in the assay on EKVX and with MDA-N was > 100 µM (inactive) in each case.

Turning to `CC12CCC(C(=O)OC1=O)C2(C)C` (centres undefined), the GI50 with HCC 2998, in the assay with OVCAR-8, in the assay on NCI/ADR-RES, in the assay with RXF 393, in the assay with DU-145 and in the assay with IGROV-1 was > 100 µM (inactive) in each case. Further, the GI50 in the assay on OVCAR-3 was > 100 µM (inactive); in the assay on SNB-75, 82.4 µM (inactive); with A498, > 100 µM (inactive); in the assay with SNB-19, > 100 µM (inactive); in the assay with NCI-H522 it was > 100 µM (inactive); in the assay with HOP-62, > 100 µM (inactive). For the same molecule, the GI50 in the assay on NCI-H23 is 1.67 µM (inactive); with SF-295, > 100 µM (inactive); in the assay with ACHN, > 100 µM (inactive); in the assay on MDA-N, > 100 µM (inactive).

As for `COc1cc2c(cc1OC)C1C3CCCCC3CCN1CC2` (centres undefined), the GI50 was > 100 µM (inactive) in the assay on HCC 2998; > 100 µM (inactive) with OVCAR-8; > 100 µM (inactive) with NCI/ADR-RES; 27 µM (inactive) in the assay with RXF 393; > 100 µM (inactive) with DU-145; > 100 µM (inactive) with IGROV-1. Further, the GI50 in the assay on OVCAR-3 was 79.4 µM (inactive); in the assay with SNB-75, 18.3 µM (inactive); in the assay with A498 it was > 100 µM (inactive); in the assay on CAKI-1, > 100 µM (inactive); in the assay on SNB-19, > 100 µM (inactive); with NCI-H522, > 100 µM (inactive). The GI50 was > 100 µM (inactive) with HOP-62; > 100 µM (inactive) in the assay on NCI-H23; 83.8 µM (inactive) with SF-295; > 100 µM (inactive) in the assay on ACHN; > 100 µM (inactive) in the assay with EKVX.

Regarding `Cc1ccc(NC(=O)CC(=O)n2nc(C)c(/N=N/c3ccc(S(=O)(=O)CCOS(=O)(=O)O)cc3)c2C)cc1`, the GI50 in the assay with HCC 2998, in the assay with OVCAR-8, in the assay on NCI/ADR-RES, with RXF 393, in the assay on DU-145 and in the assay on IGROV-1 was > 100 µM (inactive) in each case. Besides, the GI50 in the assay with OVCAR-3, in the assay with SNB-75, in the assay with A498, with SNB-19, in the assay with NCI-H522 and in the assay with HOP-62 was > 100 µM (inactive) throughout. The GI50 in the assay on NCI-H23 is > 100 µM (inactive); in the assay on SF-295, 97.1 µM (inactive); in the assay with ACHN, > 100 µM (inactive); in the assay with EKVX, > 100 µM (inactive); in the assay with MDA-N, > 100 µM (inactive).

For `COC(=O)c1cc2c(c(C(=O)OC)c1)CCC2`, the GI50 with HCC 2998 is > 100 µM (inactive); in the assay with OVCAR-8 it was > 100 µM (inactive); with NCI/ADR-RES, 59.8 µM (inactive); in the assay on RXF 393, 82.6 µM (inactive); in the assay with DU-145, > 100 µM (inactive); with IGROV-1, > 100 µM (inactive). Also, the GI50 in the assay on OVCAR-3 is 49.4 µM (inactive); in the assay on SNB-75, 34.8 µM (inactive); with A498 it was 63.7 µM (inactive); with CAKI-1 it was 20.7 µM (inactive); in the assay with SNB-19, > 100 µM (inactive); in the assay with NCI-H522, 58.2 µM (inactive). Further, the GI50 with HOP-62, with NCI-H23, with SF-295, in the assay on ACHN, in the assay with EKVX and in the assay on MDA-N was > 100 µM (inactive) throughout.

As to `O=C(C#CP(=O)(O)c1ccccc1)c1ccccc1`, the GI50 with HCC 2998, in the assay on OVCAR-8, with NCI/ADR-RES, in the assay with DU-145, in the assay on IGROV-1 and with OVCAR-3 was > 100 µM (inactive) in each case. Also, the GI50 with SNB-75, in the assay with A498, in the assay with CAKI-1, in the assay on SNB-19, in the assay on NCI-H522 and with HOP-62 was > 100 µM (inactive) in each case. The GI50 with NCI-H23, in the assay on SF-295, in the assay with ACHN, in the assay on EKVX and in the assay on MDA-N was > 100 µM (inactive) throughout.

With `COC(=O)c1ccc(C)cc1C1CN=NC12Cc1cc(C)c(C)cc1C2=O` (centres undefined), the GI50 in the assay with HCC 2998 is 29.8 µM (inactive); with OVCAR-8, 65 µM (inactive); with NCI/ADR-RES, 28.6 µM (inactive); in the assay with RXF 393 it was 31.8 µM (inactive); in the assay on DU-145 it was 59.2 µM (inactive); in the assay on IGROV-1, > 100 µM (inactive). For the same molecule, the GI50 in the assay with OVCAR-3 is 49.5 µM (inactive); in the assay with SNB-75, 35.9 µM (inactive); with A498 it was 57.4 µM (inactive); with CAKI-1, 79.8 µM (inactive); in the assay on SNB-19, 42.4 µM (inactive); in the assay with NCI-H522 it was 27.7 µM (inactive). Moreover, the GI50 in the assay on HOP-62 was > 100 µM (inactive); in the assay on NCI-H23, 40.6 µM (inactive); in the assay with SF-295, 47.3 µM (inactive); in the assay with ACHN, 29.5 µM (inactive); in the assay with EKVX, 24.3 µM (inactive); in the assay on MDA-N it was 27.9 µM (inactive).

`O=C(Nc1ccccc1-c1nn(CN2CCNCC2)c(=S)n(CN2CCNCC2)c1=O)C(F)(F)F`: the GI50 with HCC 2998 is 19.1 µM (inactive); in the assay on OVCAR-8 it was 20.6 µM (inactive); in the assay on RXF 393, 16.3 µM (inactive); in the assay with IGROV-1, 22.3 µM (inactive); in the assay with OVCAR-3, 20.7 µM (inactive); in the assay on SNB-75, 22.6 µM (inactive). The GI50 in the assay with A498 was 18.2 µM (inactive); in the assay with CAKI-1, 23.9 µM (inactive); with SNB-19 it was 21.6 µM (inactive); in the assay on HOP-62, 19.6 µM (inactive); in the assay on NCI-H23 it was 17.9 µM (inactive); in the assay on SF-295, 29 µM (inactive). In addition, the GI50 was 25.3 µM (inactive) in the assay with ACHN and 14.2 µM (inactive) in the assay on EKVX.

As for `C/C(=N\NC(N)=S)c1ccc2c(c1)Sc1ccccc1O2`, the GI50 in the assay on HCC 2998 is 1.66 µM (inactive); with OVCAR-8 it was 2.48 µM (inactive); in the assay with NCI/ADR-RES, 2.55 µM (inactive); in the assay with DU-145, 28.1 µM (inactive); in the assay on OVCAR-3, 1.02 µM (active); in the assay on SNB-75 it was 2.53 µM (inactive). Further, the GI50 in the assay with A498 was 2.59 µM (inactive); in the assay with CAKI-1 it was 1.04 µM (active); with SNB-19, 6.55 µM (inactive); in the assay with HOP-62 it was 3.46 µM (inactive); with NCI-H23, 3.7 µM (inactive); in the assay with SF-295, 4.63 µM (inactive). The GI50 in the assay with ACHN was 4.55 µM (inactive); with EKVX it was 1.24 µM (inactive); with MDA-N, 0.373 µM (active).

Regarding `N#CC12CC(C=O)=C(N)C1(C#N)CC(C=O)=C2N` (centres undefined), the GI50 is 26.5 µM (inactive) with HCC 2998; 63.7 µM (inactive) in the assay on OVCAR-8; > 100 µM (inactive) in the assay on NCI/ADR-RES; 41.9 µM (inactive) in the assay with RXF 393; 46 µM (inactive) with DU-145; 71.9 µM (inactive) in the assay with IGROV-1. Further, the GI50 in the assay with SNB-75 was 44.4 µM (inactive); in the assay on A498, > 100 µM (inactive); in the assay on CAKI-1, > 100 µM (inactive); in the assay with SNB-19 it was 52.8 µM (inactive); in the assay with NCI-H522, > 100 µM (inactive); with HOP-62, 65.9 µM (inactive). Besides, the GI50 is 28.3 µM (inactive) in the assay on NCI-H23; > 100 µM (inactive) in the assay with SF-295; > 100 µM (inactive) with ACHN; > 100 µM (inactive) with EKVX; 32.4 µM (inactive) with MDA-N.

In the case of `COC(CN(C)C(=S)Nc1cccc2ccccc12)OC`, the GI50 in the assay with HCC 2998, with OVCAR-8, in the assay on NCI/ADR-RES, in the assay with RXF 393, in the assay on DU-145 and with IGROV-1 was > 10 µM (inactive) in each case. Moreover, the GI50 with OVCAR-3, in the assay on SNB-75, in the assay on A498, with CAKI-1, in the assay on SNB-19 and with NCI-H522 was > 10 µM (inactive) throughout. Further, the GI50 with HOP-62, with NCI-H23, with SF-295, in the assay with ACHN, with EKVX and with MDA-N was > 10 µM (inactive) in each case.
